Assay results from patent US8822500B2, “Tyrosine kinase inhibitors” (Chembridge Corporation, priority 2008, dated 2014).
pIC50: −log10 of the molar value. Like-named read-outs stand apart in the source and are kept apart here.

Legend:
U937 lymphoma cells = experiment: Cellular assay, 3 day cell viability (WST-1); assay type: cell-based; conditions: Homo sapiens, U-937, 72 h; for pIC50: 3 days, WST-1
Caco-2 cells = experiment: Caco-2 cell permeation study; assay type: in vitro ADME; conditions: for Papp (10−6 cm/sec) A to B / Papp (10−6 cm/sec) B to A: 10 μM; for Papp (10−6 cm/sec) A to B: apical pH 6.5, 2 h; for Papp (10−6 cm/sec) B to A: basolateral pH 7.4, 2 h; for Efflux Ratio: Caco-2;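 for all read-outs here: Caco-2 monolayers grown for 21–28 days with integrity confirmed by TEER, apical buffer HBSS with MES, basolateral buffer HBSS with HEPES, compound levels quantified by LC/MS/MS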
[1] = Caco-2 cell permeation study; assay type: in vitro ADME; conditions: human; for Papp A→B at 2 h, 10 μM: Caco-2, pH 6.5, 10 μM, apical pH 6.5, 2 h; for Papp B→A at 2 h, 10 μM: Caco-2, pH 7.4, 10 μM, basolateral pH 7.4, 2 h; for efflux ratio at 2 h, 10 μM: Caco-2, Caco-2;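 for all read-outs here: Caco-2 monolayers grown for 21–28 days with integrity confirmed by TEER, apical buffer HBSS with MES, basolateral buffer HBSS with HEPES, compound levels quantified by LC/MS/MS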
SUDHL-1 lymphoma cells = experiment: Cellular assay, 3 day cell viability (WST-1); assay type: cell-based; conditions: Homo sapiens, SU-DHL-1, 72 h; for pIC50: 3 days, WST-1
[2] = Rat pharmacokinetics / bioavailability; assay type: in vivo
NB-1 neuroblastoma cells = experiment: Cellular assay, 3 day cell viability (WST-1); assay type: cell-based; conditions: 72 h
cMET = cMET (Homo sapiens (Human), UniProt P08581); experiment: In vitro kinase activity assay (LANCE TR-FRET); assay type: biochemical
TrkA = TrkA (Homo sapiens (Human), UniProt P04629); experiment: In vitro kinase activity assay (LANCE TR-FRET); assay type: biochemical; conditions: for IC50: read-out: TrkA (nM) IC50;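 for all read-outs here: kinase reaction with poly-GT peptide substrate and ATP, phosphorylated product quantified by time-resolved FRET, eleven-point dose curves from 10^−11 to 10^−5 M in triplicate, DMSO as negative control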
K299 lymphoma cells = experiment: Cellular assay, 3 day cell viability (WST-1); assay type: cell-based; conditions: 72 h, 3 days
ALK = ALK (Homo sapiens (Human), UniProt Q9UM73); experiment: In vitro kinase activity assay (LANCE TR-FRET); assay type: biochemical; conditions: for IC50: read-out: ALK (nM) IC50;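 for all read-outs here: kinase reactions with ATP and a poly-GT peptide substrate, phosphorylated product read by time-resolved FRET, 11-point curve from 10^−11 to 10^−5 M, DMSO as negative control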
in vitro [3] = conditions: human, microsomes; for microsomal CLint at 0.5 μM: pH 7.4, Human LM-P1 CL (ul/min/mg); for half-life at 0.5 μM: pH 7.4, Human LM-P1 Half-life (min)
in vitro [4] = conditions: rat, microsomes; for half-life at 0.5 μM: pH 7.4; for microsomal CLint at 0.5 μM: pH 7.4, Rat LM-P1 CL (ul/min/mg)
[5] = Metabolic stability, Phase I microsome reactions; assay type: in vitro ADME, mouse; conditions: 1.0 mg/ml microsomes; for microsomal CLint at 0.5 μM / half-life at 0.5 μM: mouse, liver microsomes, pH 7.4, Phase I only; for microsomal CLint at 0.5 μM: read-out: Mouse LM-P1 CL; for half-life at 0.5 μM: read-out: Mouse LM-P1 Half-life
[6] = biological target: hERG (human ether-a-go-go related gene) potassium channel (Homo sapiens (Human), UniProt Q12809); experiment: hERG potassium channel current, automated patch clamp (PatchXpress 7000A);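 note: Four-point series of 0.3, 3, 10 and 30 µM, two cells recorded per concentration, 5 min exposure at each level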
ROS = ROS (Homo sapiens (Human), UniProt P08922); experiment: In vitro kinase activity assay (LANCE TR-FRET); assay type: biochemical; conditions: for pIC50: read-out: GTx-ROS IC50; for IC50: read-out: ROS (nM) IC50
RET = RET (Homo sapiens (Human), UniProt P07949); experiment: In vitro kinase activity assay (LANCE TR-FRET); assay type: biochemical; conditions: for pIC50: read-out: GTx-RET IC50; for IC50: read-out: RET (nM) IC50
[7] = male, Sprague-Dawley, plasma, po, 10 mg/kg P.O.

Sequence of cMET (P08581 25-1390): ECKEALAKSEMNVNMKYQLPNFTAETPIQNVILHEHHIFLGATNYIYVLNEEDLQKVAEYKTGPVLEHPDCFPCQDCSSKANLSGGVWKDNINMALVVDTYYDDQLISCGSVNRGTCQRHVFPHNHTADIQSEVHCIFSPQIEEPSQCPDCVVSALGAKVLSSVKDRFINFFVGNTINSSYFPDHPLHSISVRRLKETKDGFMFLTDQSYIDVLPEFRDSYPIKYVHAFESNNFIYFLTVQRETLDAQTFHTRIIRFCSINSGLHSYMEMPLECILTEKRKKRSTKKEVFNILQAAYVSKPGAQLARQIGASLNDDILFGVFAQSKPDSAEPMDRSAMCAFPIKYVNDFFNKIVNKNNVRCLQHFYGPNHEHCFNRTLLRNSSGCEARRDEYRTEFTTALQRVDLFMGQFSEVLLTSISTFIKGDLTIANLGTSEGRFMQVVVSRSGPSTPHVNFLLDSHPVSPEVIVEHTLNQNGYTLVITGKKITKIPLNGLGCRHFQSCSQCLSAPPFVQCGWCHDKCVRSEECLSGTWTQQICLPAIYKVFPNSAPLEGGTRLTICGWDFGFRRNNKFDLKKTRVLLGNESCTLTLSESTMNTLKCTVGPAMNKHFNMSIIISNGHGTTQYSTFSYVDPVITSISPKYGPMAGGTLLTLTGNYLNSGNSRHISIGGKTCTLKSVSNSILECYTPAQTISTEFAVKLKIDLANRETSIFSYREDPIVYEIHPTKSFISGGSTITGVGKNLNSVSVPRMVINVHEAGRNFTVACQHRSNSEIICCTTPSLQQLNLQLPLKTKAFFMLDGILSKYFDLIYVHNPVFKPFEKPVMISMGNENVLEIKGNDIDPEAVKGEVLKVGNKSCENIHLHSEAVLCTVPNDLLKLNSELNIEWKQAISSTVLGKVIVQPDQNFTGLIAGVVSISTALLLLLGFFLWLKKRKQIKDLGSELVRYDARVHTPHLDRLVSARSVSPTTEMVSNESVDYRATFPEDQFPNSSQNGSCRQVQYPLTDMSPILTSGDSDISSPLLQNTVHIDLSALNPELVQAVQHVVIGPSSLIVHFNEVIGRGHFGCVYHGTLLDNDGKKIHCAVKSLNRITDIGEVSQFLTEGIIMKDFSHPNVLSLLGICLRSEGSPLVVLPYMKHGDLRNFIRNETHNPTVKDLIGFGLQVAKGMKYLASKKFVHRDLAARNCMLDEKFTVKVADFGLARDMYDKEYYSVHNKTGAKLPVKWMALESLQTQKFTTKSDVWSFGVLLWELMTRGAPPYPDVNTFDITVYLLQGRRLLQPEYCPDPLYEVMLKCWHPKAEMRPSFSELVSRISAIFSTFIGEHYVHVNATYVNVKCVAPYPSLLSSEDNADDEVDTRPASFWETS
Sequence of hERG (human ether-a-go-go related gene) potassium channel (Q12809 whole entry): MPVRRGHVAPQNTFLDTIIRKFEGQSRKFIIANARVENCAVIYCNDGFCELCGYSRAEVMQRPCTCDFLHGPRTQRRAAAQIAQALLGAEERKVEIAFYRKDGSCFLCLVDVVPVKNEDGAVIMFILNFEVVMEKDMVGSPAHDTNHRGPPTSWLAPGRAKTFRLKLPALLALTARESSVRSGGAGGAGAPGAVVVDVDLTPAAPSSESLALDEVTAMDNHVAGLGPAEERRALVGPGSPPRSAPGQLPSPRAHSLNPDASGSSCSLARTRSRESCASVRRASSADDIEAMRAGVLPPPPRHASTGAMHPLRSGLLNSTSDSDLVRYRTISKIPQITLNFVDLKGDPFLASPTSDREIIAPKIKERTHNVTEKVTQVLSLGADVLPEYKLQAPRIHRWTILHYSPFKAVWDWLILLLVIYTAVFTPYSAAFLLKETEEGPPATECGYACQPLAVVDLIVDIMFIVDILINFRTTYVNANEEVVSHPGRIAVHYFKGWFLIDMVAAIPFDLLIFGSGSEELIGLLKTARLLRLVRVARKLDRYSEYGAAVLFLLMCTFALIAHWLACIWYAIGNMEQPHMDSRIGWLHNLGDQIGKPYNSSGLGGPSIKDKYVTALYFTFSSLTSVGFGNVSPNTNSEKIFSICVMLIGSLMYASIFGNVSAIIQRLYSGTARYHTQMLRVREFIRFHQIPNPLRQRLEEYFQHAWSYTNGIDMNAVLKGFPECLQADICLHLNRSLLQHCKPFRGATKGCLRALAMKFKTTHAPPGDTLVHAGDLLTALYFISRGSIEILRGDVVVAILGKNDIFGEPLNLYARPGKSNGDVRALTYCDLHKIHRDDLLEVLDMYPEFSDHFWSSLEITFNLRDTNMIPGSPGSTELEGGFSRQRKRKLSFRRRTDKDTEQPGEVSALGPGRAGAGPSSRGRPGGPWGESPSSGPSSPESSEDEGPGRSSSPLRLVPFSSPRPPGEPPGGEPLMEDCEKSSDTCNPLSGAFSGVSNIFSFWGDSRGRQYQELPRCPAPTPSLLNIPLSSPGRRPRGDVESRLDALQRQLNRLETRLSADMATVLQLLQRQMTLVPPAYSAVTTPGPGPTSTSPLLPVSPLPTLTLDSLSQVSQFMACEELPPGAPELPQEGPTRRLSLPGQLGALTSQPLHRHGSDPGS
Sequence of RET (P07949 29-1114): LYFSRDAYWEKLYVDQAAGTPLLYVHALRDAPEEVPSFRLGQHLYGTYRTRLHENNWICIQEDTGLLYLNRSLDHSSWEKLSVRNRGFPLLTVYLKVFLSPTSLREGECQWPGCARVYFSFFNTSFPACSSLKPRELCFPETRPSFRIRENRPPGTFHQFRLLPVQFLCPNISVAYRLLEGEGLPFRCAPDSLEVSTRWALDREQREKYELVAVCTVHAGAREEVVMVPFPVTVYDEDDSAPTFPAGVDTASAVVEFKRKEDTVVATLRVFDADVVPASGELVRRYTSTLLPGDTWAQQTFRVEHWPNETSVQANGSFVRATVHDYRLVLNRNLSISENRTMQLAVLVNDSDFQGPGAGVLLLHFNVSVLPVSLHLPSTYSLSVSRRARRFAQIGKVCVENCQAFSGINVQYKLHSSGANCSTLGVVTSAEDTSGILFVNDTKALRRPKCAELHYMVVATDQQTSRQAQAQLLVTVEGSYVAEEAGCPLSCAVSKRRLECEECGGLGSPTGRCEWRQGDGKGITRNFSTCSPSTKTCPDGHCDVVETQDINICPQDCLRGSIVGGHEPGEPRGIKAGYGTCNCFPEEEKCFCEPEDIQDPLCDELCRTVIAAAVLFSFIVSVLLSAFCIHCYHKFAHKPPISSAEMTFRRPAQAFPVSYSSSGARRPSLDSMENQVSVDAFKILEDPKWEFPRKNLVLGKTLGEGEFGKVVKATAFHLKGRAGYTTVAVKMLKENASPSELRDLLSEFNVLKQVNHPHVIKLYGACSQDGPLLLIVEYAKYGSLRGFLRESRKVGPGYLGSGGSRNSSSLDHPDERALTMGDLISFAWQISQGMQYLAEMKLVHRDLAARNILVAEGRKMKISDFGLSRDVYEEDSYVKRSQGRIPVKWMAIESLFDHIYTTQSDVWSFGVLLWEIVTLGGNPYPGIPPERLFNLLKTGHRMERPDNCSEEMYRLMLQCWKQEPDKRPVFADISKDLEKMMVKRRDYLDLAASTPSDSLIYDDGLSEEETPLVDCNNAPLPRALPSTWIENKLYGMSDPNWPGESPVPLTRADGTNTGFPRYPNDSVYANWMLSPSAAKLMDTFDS
Sequence of TrkA (P04629 33-796): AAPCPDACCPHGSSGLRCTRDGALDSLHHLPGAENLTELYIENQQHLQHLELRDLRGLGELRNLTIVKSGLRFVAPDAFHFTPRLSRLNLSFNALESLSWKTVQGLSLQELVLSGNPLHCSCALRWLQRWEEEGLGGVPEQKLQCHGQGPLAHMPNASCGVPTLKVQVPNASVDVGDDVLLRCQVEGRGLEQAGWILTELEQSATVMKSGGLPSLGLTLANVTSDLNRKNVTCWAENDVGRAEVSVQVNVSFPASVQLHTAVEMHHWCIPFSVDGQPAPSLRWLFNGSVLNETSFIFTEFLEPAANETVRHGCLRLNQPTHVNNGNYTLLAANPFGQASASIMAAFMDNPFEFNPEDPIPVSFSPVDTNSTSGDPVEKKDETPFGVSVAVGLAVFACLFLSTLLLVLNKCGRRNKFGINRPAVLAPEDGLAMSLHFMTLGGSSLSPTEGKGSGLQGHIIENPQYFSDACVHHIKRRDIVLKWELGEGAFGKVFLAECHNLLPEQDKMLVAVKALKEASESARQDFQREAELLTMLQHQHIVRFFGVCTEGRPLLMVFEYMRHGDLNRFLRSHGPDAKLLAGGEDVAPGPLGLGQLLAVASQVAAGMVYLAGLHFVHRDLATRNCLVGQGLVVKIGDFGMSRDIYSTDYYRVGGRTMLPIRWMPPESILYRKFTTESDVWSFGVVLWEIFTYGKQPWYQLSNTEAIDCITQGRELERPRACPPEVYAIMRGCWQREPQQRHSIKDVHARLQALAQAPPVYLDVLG

Compound | Papp (10−6 cm/sec) B to A (Caco-2 cells) | Papp A→B at 2 h, 10 μM [1] [×10⁻⁶ cm/s] | Papp B→A at 2 h, 10 μM [1] [×10⁻⁶ cm/s] | IC50 (cMET) [nM] | pIC50 (TrkA; read-out: TrKA IC50) | IC50 (TrkA) [nM] | pIC50 (K299 lymphoma cells; read-out: K299 IC50) | IC50 (ALK) [nM] | pIC50 (ALK; read-out: ALK IC50) | microsomal CLint at 0.5 μM (in vitro [3]) [µL/min/mg] | half-life at 0.5 μM (in vitro [3]) [h] | half-life at 0.5 μM (in vitro [4]) [h] | microsomal CLint at 0.5 μM (in vitro [4]) [µL/min/mg] | microsomal CLint at 0.5 μM [5] [µL/min/mg] | half-life at 0.5 μM [5] [h] | pIC50 (TrkA; read-out: GTx-TrKA IC50) | pIC50 (ALK; read-out: GTx-ALK IC50) | IC50 (ROS) [nM] | IC50 (RET) [nM] | pIC50 [6] | other results
C[C@@H](Cc1c(F)c(F)cc(F)c1F)Nc1cc[nH]c(=O)c1-c1nc2cc3c(cc2[nH]1)C(=O)N(c1cccnc1)C3=O [Compound 12, (S)-2-(2-oxo-4-((1-(2,3,5,6-tetrafluorophenyl)propan-2-yl)amino)-1,2-dihydropyridin-3-yl)-6-(pyridin-3-yl)imidazo[4,5-f]isoindole-5,7(1H,6H)-dione] | – | < 0.2 | < 0.2 | > 10000 | 7.70 | 20.4 | < 5.00 | 47.3 | 7.33 | < 5.8 | > 2 | > 2 | < 5.8 | < 5.8 | > 2 | – | – | – | – | < 5.52 | –
CC(Cc1c(F)c(F)cc(F)c1F)Nc1cc[nH]c(=O)c1-c1nc2cc3c(cc2[nH]1)C(=O)N(C)C3=O (centres unmarked) [Compound 41, 2-(4-(1-(2,3,5,6-Tetrafluorophenyl)propan-2-ylamino)-2-oxo-1,2-dihydropyridin-3-yl)-6-methylimidazo[4,5-f]isoindole-5,7(1H,6H)-dione] | – | – | – | – | – | > 10000 | – | > 10000 | – | – | – | – | – | – | – | < 5.00 | < 5.00 | 4.53 | > 10000 | – | pIC50 (ROS): 8.30; pIC50 (RET): < 5.00
COC1c2cc3nc(-c4c(N[C@@H](C)Cc5c(F)c(F)cc(F)c5F)cc[nH]c4=O)[nH]c3cc2C(=O)N1c1cccnc1 (stereo partly drawn) [Compound 14, 7-Methoxy-2-(2-oxo-4-(((S)-1-(2,3,5,6-tetrafluorophenyl)propan-2-yl)amino)-1,2-dihydropyridin-3-yl)-6-(pyridin-3-yl)-6,7-dihydroimidazo[4,5-f]isoindol-5(1H)-one] | – | – | – | > 10000 | 7.38 | 41.6 | – | 174 | 6.76 | < 5.8 | > 2 | 1.71 | 6.76 | < 5.8 | > 2 | – | – | – | – | – | –
CC(Cc1c(F)c(F)cc(F)c1F)Nc1cc[nH]c(=O)c1-c1nc2cc3c(cc2n1C)C(=O)N(C)C3 (stereo not drawn) [Compound 43a, Cis-1,6-Dimethyl-2(2-oxo-4-(1-(2,3,5,6-tetrafluorophenyl)propan-2-ylamino)-1,2-dihydropyridin-3-yl)-6,7-dihydroimidazo[4,5-J]isoindol-5(1H)-one] | – | – | – | – | – | 6510 | – | > 10000 | – | – | – | – | – | – | – | 5.19 | < 5.00 | 1200 | > 10000 | – | pIC50 (ROS): 5.95; pIC50 (RET): < 5.00
C[C@@H](Cc1c(F)c(F)cc(F)c1F)Nc1cc[nH]c(=O)c1-c1nc2cc3c(cc2[nH]1)C(O)N(c1cccnc1)C3=O (stereo partly drawn) [Compound 13, 7-Hydroxy-2-(2-oxo-4-4(((S)-1-(2,3,5,6-tetrafluorophenyl)propan-2-yl)amino)-1,2-dihydropyridin-3-yl)-6-(pyridin-3-yl)-6,7-dihydroimidazo[4,5-f]isoindol-5(1H)-one] | – | < 0.2 | 1.9 | > 10000 | 8.22 | – | 6.10 | – | – | 8.77 | 1.32 | 0.629 | 18.4 | 7.89 | 1.46 | – | – | – | – | – | pIC50 (U937 lymphoma cells; read-out: U937 IC50): < 5.52; efflux ratio at 2 h, 10 μM [1]: > 9.5

Further lines, with some results ahead:

Papp (10−6 cm/sec) B to A (Caco-2 cells) | Papp A→B at 2 h, 10 μM [1] [×10⁻⁶ cm/s] | Papp B→A at 2 h, 10 μM [1] [×10⁻⁶ cm/s] | IC50 (cMET) [nM] | pIC50 (TrkA; read-out: TrKA IC50) | IC50 (TrkA) [nM] | pIC50 (K299 lymphoma cells; read-out: K299 IC50) | IC50 (ALK) [nM] | pIC50 (ALK; read-out: ALK IC50) | microsomal CLint at 0.5 μM (in vitro [3]) [µL/min/mg] | half-life at 0.5 μM (in vitro [3]) [h] | half-life at 0.5 μM (in vitro [4]) [h] | microsomal CLint at 0.5 μM (in vitro [4]) [µL/min/mg] | microsomal CLint at 0.5 μM [5] [µL/min/mg] | half-life at 0.5 μM [5] [h] | pIC50 (TrkA; read-out: GTx-TrKA IC50) | pIC50 (ALK; read-out: GTx-ALK IC50) | IC50 (ROS) [nM] | IC50 (RET) [nM] | Compound | pIC50 [6] | other results
50.7 10−6 cm/sec | < 0.2 | 50.7 | – | – | – | – | – | – | – | – | – | – | – | – | – | – | – | – | CC(Oc1cc(-c2cnn(C3CCNCC3)c2)cnc1N)c1c(Cl)ccc(F)c1Cl (racemic) [PF2341066, crizotinib, reference compound] | – | IC50 (U937 lymphoma cells; read-out: GTx-U937 IC50 (uM)): 1.67 µM; IC50 (U937 lymphoma cells; read-out: U937 IC50(μM)): 1.67 µM; Papp (10−6 cm/sec) A to B (Caco-2 cells; listed as Pfizer): >0.2 10−6 cm/sec; Papp (10−6 cm/sec) A to B (Caco-2 cells; listed as Pfizer (PF2341066)): <0.2 10−6 cm/sec; IC50 (SUDHL-1 lymphoma cells; read-out: GTx-SUDHL-1 IC50 (uM)): 0.132 µM; IC50 (SUDHL-1 lymphoma cells; read-out: SUDHL-1 IC50(μM)): 0.132 µM; MRT ([2]; male, Sprague-Dawley, plasma, iv, 10 mg/kg I.V.): 1.88 h; Cmax [2, 7]: 58.3 ng/mL; Tmax [2, 7]: 5.25 h; IC50 (NB-1 neuroblastoma cells; read-out: GTx-NB-1 IC50 (uM)): 0.167 µM; IC50 (NB-1 neuroblastoma cells; read-out: NB-1 IC50(μM)): 0.167 µM
– | – | – | – | – | 5.99 | – | 14.6 | – | – | – | – | – | – | – | – | – | 2.37 | 11.1 | Cc1c2c(cc3[nH]c(-c4c(NC(C)Cc5c(F)c(F)cc(F)c5F)cc[nH]c4=O)nc13)C(=O)N(C1CCN(C)CC1)C2 (centres unmarked) [Compound 24A, 8-Methyl-6-(1-methylpiperidin-4-yl)-2-(2-oxo-4-(1-(2,3,5,6-tetrafluorophenyl)propan-2-ylamino)-1,2-dihydropyridin-3-yl)-6,7-dihydroimidazo[4,5-f]isoindol-5(3H)-one] | – | –
– | – | – | 1000 to 3000 | 8.40 | 4.33 | 6.58 | 9.16 | 8.05 | < 5.8 | > 2 | 0.343 | 33.3 | 29.4 | 0.393 | – | – | 0.688 | 13.1 | CC(Cc1cc(F)ccc1F)Nc1cc[nH]c(=O)c1-c1nc2cc3c(cc2[nH]1)C(=O)N(CCN(C)C)C3 (racemic) [Compound 18, 2-(4-(1-(2,5-Difluorophenyl)propan-2-ylamino)-2-oxo-1,2-dihydropyridin-3-yl)-6-(2-(dimethylamino)ethyl)-6,7-dihydroimidazo[4,5-f]isoindole-5(1H)-one] | 5.27 | pIC50 (U937 lymphoma cells; read-out: U937 IC50): < 5.52; pIC50 (SUDHL-1 lymphoma cells; read-out: SUDHL-1 IC50): 6.76
7.41 10−6 cm/sec | 1.25 | 8.24 | – | – | 7.81 | – | 34.1 | – | 25.3 | 0.457 | 0.145 | 78 | – | – | – | – | 1.88 | 16.9 | CC(Cc1cc(F)ccc1F)Nc1cc[nH]c(=O)c1-c1nc2cc3c(cc2[nH]1)CNC3=O (centres unmarked) [Compound 53] | – | Papp (10−6 cm/sec) A to B (Caco-2 cells): 0.76 10−6 cm/sec; Efflux Ratio (Caco-2 cells): 10.1; efflux ratio at 2 h, 10 μM [1]: 6.6; IV_AUC0-1440 Rat 10 mpk ([2]; 10 mg/kg I.V.): 531 µg·min/mL; PO_AUC0-1440 Rat 10 mpk ([2]; 10 mg/kg P.O.): 2.13 µg·min/mL; bioavailability ([2]; male, Sprague-Dawley, plasma, po, 10 mg/kg P.O., read-out: Rat F %): 0.402%
1.4 10−6 cm/sec | – | – | – | – | 5.13 | – | 24.7 | – | 26.1 | 0.443 | 0.119 | 97.2 | – | – | 8.30 | 7.60 | 0.74 | 17.7 | CC(Cc1cc(F)ccc1F)Nc1cc[nH]c(=O)c1-c1nc2cc3c(cc2[nH]1)CN(C)C3=O (centres unmarked) [Compound 33, 2-(4-(1-(2,5-Difluorophenyl)propan-2-ylamino)-2-oxo-1,2-dihydropyridin-3-yl)-6-methyl-6,7-dihydroimidazo[4,5-f]isoindol-5(1H)-one] | < 5.00 | pIC50 (U937 lymphoma cells; read-out: GTx-U937 IC50): < 5.00; Papp (10−6 cm/sec) A to B (Caco-2 cells): 1.7 10−6 cm/sec; Efflux Ratio (Caco-2 cells): 0.5; efflux ratio at 2 h, 10 μM [1]: 0.8; pIC50 (SUDHL-1 lymphoma cells; read-out: GTx-SUDHL-1 IC50): 6.06; pIC50 (K299 lymphoma cells; read-out: GTx-K299 IC50): 6.27; pIC50 (ROS): 9.15; Mouse LM-P1 CL ([5]; Phase I only, 0.5 μM): 12.82 µL/min/mg; pIC50 (RET): 7.74
